The values that follow come from patent publication US12448392B2, “Spiropiperidine derivatives” (89BIO LTD, priority 2016, dated 2025).

For the first assay, the target named is T1, recombinant human baculovirus-expressed GST-tagged FASN (Homo sapiens, UniProt P49327).
T1 construct: GST
T1 sequence (P49327 whole entry): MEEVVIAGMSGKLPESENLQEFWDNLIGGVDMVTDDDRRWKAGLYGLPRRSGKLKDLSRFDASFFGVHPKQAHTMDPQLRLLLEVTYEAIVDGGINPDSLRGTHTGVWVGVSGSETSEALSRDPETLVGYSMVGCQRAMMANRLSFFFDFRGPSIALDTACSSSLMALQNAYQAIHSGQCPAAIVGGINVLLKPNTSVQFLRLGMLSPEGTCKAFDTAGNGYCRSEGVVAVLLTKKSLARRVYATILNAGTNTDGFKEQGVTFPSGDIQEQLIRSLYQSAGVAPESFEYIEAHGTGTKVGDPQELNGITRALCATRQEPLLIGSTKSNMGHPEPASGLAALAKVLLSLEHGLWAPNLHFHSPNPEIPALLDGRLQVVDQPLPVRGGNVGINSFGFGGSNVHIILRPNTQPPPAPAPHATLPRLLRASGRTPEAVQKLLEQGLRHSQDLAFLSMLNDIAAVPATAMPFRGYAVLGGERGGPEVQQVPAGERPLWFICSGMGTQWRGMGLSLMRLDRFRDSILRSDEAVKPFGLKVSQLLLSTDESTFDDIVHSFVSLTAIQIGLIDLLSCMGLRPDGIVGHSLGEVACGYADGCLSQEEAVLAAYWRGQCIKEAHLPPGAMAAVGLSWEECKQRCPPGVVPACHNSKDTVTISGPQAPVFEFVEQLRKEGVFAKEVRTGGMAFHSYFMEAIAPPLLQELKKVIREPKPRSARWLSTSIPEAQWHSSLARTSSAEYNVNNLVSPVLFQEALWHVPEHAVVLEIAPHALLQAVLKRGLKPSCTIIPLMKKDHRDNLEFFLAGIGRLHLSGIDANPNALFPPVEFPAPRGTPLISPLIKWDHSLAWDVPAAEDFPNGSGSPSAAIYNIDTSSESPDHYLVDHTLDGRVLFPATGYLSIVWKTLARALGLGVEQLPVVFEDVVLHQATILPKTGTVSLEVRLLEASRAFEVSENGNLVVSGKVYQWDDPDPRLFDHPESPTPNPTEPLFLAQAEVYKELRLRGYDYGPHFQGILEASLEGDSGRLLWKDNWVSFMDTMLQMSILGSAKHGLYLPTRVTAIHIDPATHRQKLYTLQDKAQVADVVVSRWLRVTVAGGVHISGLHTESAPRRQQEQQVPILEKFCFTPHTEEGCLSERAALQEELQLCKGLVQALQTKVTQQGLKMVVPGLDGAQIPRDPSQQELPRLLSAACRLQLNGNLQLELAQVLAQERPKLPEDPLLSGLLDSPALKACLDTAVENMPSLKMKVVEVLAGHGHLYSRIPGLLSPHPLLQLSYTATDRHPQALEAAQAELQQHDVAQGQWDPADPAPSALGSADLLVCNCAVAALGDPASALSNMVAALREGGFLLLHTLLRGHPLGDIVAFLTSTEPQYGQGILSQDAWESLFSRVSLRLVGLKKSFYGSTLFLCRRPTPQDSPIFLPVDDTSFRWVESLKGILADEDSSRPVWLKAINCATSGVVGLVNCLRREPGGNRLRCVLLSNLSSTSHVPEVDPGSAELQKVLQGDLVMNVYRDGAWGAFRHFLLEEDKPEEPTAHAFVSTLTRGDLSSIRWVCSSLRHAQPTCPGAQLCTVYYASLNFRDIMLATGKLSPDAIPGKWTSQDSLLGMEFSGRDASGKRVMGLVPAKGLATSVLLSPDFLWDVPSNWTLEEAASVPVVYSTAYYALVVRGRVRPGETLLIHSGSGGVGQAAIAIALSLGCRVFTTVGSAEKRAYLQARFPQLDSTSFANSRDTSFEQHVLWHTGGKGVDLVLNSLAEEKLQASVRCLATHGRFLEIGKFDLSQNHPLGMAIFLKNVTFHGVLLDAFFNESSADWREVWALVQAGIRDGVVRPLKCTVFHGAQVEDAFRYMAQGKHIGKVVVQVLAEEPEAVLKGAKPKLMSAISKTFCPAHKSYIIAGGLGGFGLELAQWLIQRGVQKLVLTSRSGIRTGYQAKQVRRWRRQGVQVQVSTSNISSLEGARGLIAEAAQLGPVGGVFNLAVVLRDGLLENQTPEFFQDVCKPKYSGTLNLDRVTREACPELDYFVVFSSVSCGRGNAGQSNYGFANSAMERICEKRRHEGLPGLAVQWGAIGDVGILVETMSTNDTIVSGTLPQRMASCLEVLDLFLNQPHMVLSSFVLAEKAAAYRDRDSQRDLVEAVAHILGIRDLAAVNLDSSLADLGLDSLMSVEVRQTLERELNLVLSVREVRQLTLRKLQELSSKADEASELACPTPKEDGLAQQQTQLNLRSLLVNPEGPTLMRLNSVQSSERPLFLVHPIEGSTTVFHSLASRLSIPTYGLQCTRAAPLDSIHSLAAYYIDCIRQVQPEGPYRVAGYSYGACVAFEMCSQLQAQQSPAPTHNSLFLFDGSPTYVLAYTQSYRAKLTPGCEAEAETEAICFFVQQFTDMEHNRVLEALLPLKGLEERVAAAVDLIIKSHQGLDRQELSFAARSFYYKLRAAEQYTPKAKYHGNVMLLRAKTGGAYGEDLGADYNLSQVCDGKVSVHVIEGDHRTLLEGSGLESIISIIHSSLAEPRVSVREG
As to the kind of experiment: biochemical.
Details: not given
Regarding `O=C(C1CC1)N1CCC2(CC1)OCc1cc(-c3cnc4ccccc4c3)ccc1O2` [Example 40, Cyclopropyl-[6-(3-quinolyl)spiro[4H-1,3-benzodioxine-2,4′-piperidine]-1′-yl]methanone], the IC50 lay within 1 to 99 nM.

As for `O=C(C1CCC1)N1CCC2(CC1)OCc1cc(-c3cnc4ccccc4c3)ccc1O2` [Example 41, Cyclobutyl-[6-(3-quinolyl)spiro[4H-1,3-benzodioxine-2,4′-piperidine]-1′-yl]methanone], the IC50 lay within 1 to 99 nM.

With `O=C([C@H]1CCCO1)N1CCC2(CC1)OCc1cc(-c3cnc4ccccc4c3)ccc1O2` [Example 48, [6-(3-Quinolyl)spiro[4H-1,3-benzodioxine-2,4′-piperidine]-1′-yl]-[(2R)-tetrahydrofuran-2-yl]methanone], the IC50 was in the range of 1 to 99 nM.

Take `COc1c(-c2ccc3c(c2)COC2(CCN(C(=O)C4CC4)CC2)O3)ccc2cccnc12` [Example 49, Cyclopropyl-[6-(8-methoxy-7-quinolyl)spiro[4H-1,3-benzodioxine-2,4′-piperidine]-1′-yl]methanone]: the 50% inhibitory concentration (IC50) is 1 to 99 nM.

With `Cc1c(-c2ccc3c(c2)COC2(CCN(C(=O)[C@H]4CCCO4)CC2)O3)ccc2cccnc12` [Example 50, [6-(8-Methyl-7-quinolyl)spiro[4H-1,3-benzodioxine-2,4′-piperidine]-1′-yl]-[(2R)-tetrahydrofuran-2-yl]methanone], the IC50 was in the range of 1 to 99 nM.

Take `Cc1c(-c2ccc3c(c2)COC2(CCN(C(=O)[C@H]4CCCO4)CC2)O3)cnc2ccccc12` [Example 51]: the IC50 was 1 to 99 nM.

For the molecule `CCC(=O)N1CCC2(CC1)OCc1cc(-c3cnc4ccccc4c3C)ccc1O2` [Example 52, 1-[6-(4-Methyl-3-quinolyl)spiro[4H-1,3-benzodioxine-2,4′-piperidine]-1′-yl]propan-1-one], the IC50 is 1 to 99 nM.

For the molecule `CCC(=O)N1CCC2(CC1)OCc1cc(-c3ccc4cccnc4c3C)ccc1O2` [Example 53, 1-[6-(8-Methyl-7-quinolyl)spiro[4H-1,3-benzodioxine-2,4′-piperidine]-1′-yl]propan-1-one], the half-inhibitory concentration (IC50) fell in the range of 1 to 99 nM.

On to `Cc1c(-c2ccc3c(c2)COC2(CCN(C(=O)C4CC4)CC2)O3)ccc2cccnc12` [Example 54, Cyclopropyl-[6-(8-methyl-7-quinolyl)spiro[4H-1,3-benzodioxine-2,4′-piperidine]-1′-yl]methanone], for which the IC50 lay in the range of 1 to 99 nM.

With `CCC(=O)N1CCC2(CC1)OCc1cc(-c3ccc4cccnc4c3OC)ccc1O2` [Example 55, 1-[6-(8-Methoxy-7-quinolyl)spiro[4H-1,3-benzodioxine-2,4′-piperidine]-1′-yl]propan-1-one], the IC50 is 1 to 99 nM.

Consider `COc1c(-c2ccc3c(c2)COC2(CCN(C(=O)[C@H]4CCCO4)CC2)O3)ccc2cccnc12` [Example 56, [6-(8-Methoxy-7-quinolyl)spiro[4H-1,3-benzodioxine-2,4′-piperidine]-1′-yl]-[(2R)-tetrahydrofuran-2-yl]methanone], for which the IC50 was 1 to 99 nM.

In the case of `CCC(=O)N1CCC2(CC1)OCc1cc(-c3ccc4cccnc4c3Cl)ccc1O2` [Example 57, 1-[6-(8-Chloro-7-quinolyl)spiro[4H-1,3-benzodioxine-2,4′-piperidine]-1′-yl]propan-1-one], the half-inhibitory concentration (IC50) is 1 to 99 nM.

Turning to `O=C(C1CC1)N1CCC2(CC1)OCc1cc(-c3ccc4cccnc4c3Cl)ccc1O2` [Example 58, [6-(8-Chloro-7-quinolyl)spiro[4H-1,3-benzodioxine-2,4′-piperidine]-1′-yl]-cyclopropyl-methanone], the IC50 was 1 to 99 nM.

For `O=C([C@H]1CCCO1)N1CCC2(CC1)OCc1cc(-c3ccc4cccnc4c3Cl)ccc1O2` [Example 59, [6-(8-Chloro-7-quinolyl)spiro[4H-1,3-benzodioxine-2,4′-piperidine]-1′-yl]-[(2R)-tetrahydrofuran-2-yl]methanone], the half-maximal inhibitory concentration (IC50) fell in the range of 1 to 99 nM.

With `CC(=O)OCC(=O)N1CCC2(CC1)OCc1cc(-c3ccc4cccnc4c3C)ccc1O2` [Example 60, [2-[6-(8-methyl-7-quinolyl)spiro[4H-1,3-benzodioxine-2,4′-piperidine]-1′-yl]-2-oxo-ethyl]acetate], the concentration for half-maximal inhibition (IC50) was 100 to 999 nM.

Regarding `Cc1c(-c2ccc3c(c2)COC2(CCN(C(=O)CO)CC2)O3)ccc2cccnc12` [Example 62, 2-Hydroxy-1-[6-(8-methyl-7-quinolyl)spiro[4H-1,3-benzodioxine-2,4′-piperidine]-1′-yl]ethanone], the half-maximal inhibitory concentration (IC50) lay in the range of 100 to 999 nM.

The assay is the same for the next values; noted with them: 5 nM FASN, 150 μM NADPH, 10 μM acetyl-CoA, 25 μM malonyl-CoA, 90 minutes incubation; read-out: IC50 data for Compounds of Formula I, Activity.
Take `CCC(=O)N1CCC2(CC1)CC(=O)c1cc(-c3cnc4ccccc4c3)ccc1O2` [Example 38, 1′-Propanoyl-6-(3-quinolyl)spiro[chromane-2,4′-piperidine]-4-one]: the IC50 lay within 100 to 999 nM.

With `COC(=O)N1CCC2(CC1)CC(=O)c1cc(-c3cnc4ccccc4c3)ccc1O2` [Example 39, Methyl 4-oxo-6-(3-quinolyl)spiro[chromane-2,4′-piperidine]-1′-carboxylate], the 50% inhibitory concentration (IC50) was 1000 to 10000 nM.

As to `CCC(=O)N1CCC2(CC1)CC(O)c1cc(-c3cnc4ccccc4c3)ccc1O2` (stereo not shown) [Example 42, 1-[4-Hydroxy-6-(3-quinolyl)spiro[chromane-2,4′-piperidine]-1′-yl]propan-1-one], the 50% inhibitory concentration (IC50) fell in the range of 100 to 999 nM.

Regarding `CCC(=O)N1CCC2(C=Cc3cc(-c4cnc5ccccc5c4)ccc3O2)CC1` [Example 43, 1-[6-(3-Quinolyl)spiro[chromene-2,4′-piperidine]-1′-yl]propan-1-one], the IC50 lay in the range of 1 to 99 nM.

`O=C(C1CC1)N1CCC2(C=Cc3cc(-c4cnc5ccccc5c4)ccc3O2)CC1` [Example 44, Cyclopropyl-[6-(3-quinolyl)spiro[chromene-2,4′-piperidine]-1′-yl]methanone]: the IC50 is 1 to 99 nM.

For `O=C(C1CCC1)N1CCC2(C=Cc3cc(-c4cnc5ccccc5c4)ccc3O2)CC1` [Example 45, Cyclobutyl-[6-(3-quinolyl)spiro[chromene-2,4′-piperidine]-1′-yl]methanone], the IC50 fell in the range of 1 to 99 nM.

Consider `O=C(C1CC1)N1CCC2(CC1)CC(O)c1cc(-c3cnc4ccccc4c3)ccc1O2` (stereo not shown) [Example 46, Cyclopropyl-[4-hydroxy-6-(3-quinolyl)spiro[chromane-2,4′-piperidine]-1′-yl]methanone], for which the IC50 fell in the range of 100 to 999 nM.

Take `CCC(=O)N1CCC2(CCc3cc(-c4cnc5ccccc5c4)ccc3O2)CC1` [Example 47, 1-[6-(3-Quinolyl)spiro[chromane-2,4′-piperidine]-1′-yl]propan-1-one]: the IC50 was in the range of 1 to 99 nM.

Turning to `Cc1c(-c2ccc3c(c2)CCC2(CCN(C(=O)CO)CC2)O3)ccc2cccnc12` [Example 61, 2-Hydroxy-1-[6-(8-methyl-7-quinolyl)spiro[chromane-2,4′-piperidine]-1′-yl]-ethanone], the IC50 lay in the range of 100 to 999 nM.

Turning to `NC(=O)N1CCC2(CCc3cc(-c4ccc5cccnc5c4Cl)ccc3O2)CC1` [Example 63, 6-(8-Chloro-7-quinolyl)spiro[chromane-2,4′-piperidine]-1′-carboxamide], the IC50 lay within 1 to 99 nM.

Consider `CC(=O)OCC(=O)N1CCC2(CCc3cc(-c4ccc5cccnc5c4Cl)ccc3O2)CC1` [Example 64, [2-[6-(8-chloro-7-quinolyl)spiro[chromane-2,4′-piperidine]-1′-yl]-2-oxo-ethyl]acetate], for which the IC50 fell in the range of 100 to 999 nM.

On to `O=C(NOC1CCCCO1)N1CCC2(CCc3cc(-c4ccc5cccnc5c4Cl)ccc3O2)CC1` (stereo not shown) [Example 65, 6-(8-Chloro-7-quinolyl)-N-tetrahydropyran-2-yloxy-spiro[chromane-2,4′-piperidine]-1′-carboxamide], for which the half-maximal inhibitory concentration (IC50) was in the range of 1 to 99 nM.

As a reminder, the IC50 is the concentration that gives 50% inhibition.
